# Experimental data taken from patent US12583895B2, “Polypeptides for restoring endothelial function and methods of use thereof” (Vanderbilt University, priority 2019, dated 2026).
# What was measured:
# rat aorta = assay: Carbachol-induced relaxation of anisomycin-treated rat aorta; format: cell-based; conditions: rat aorta; anisomycin 200 μM, 1 h
# Procedure: (§1) RA rings were suspended in a muscle bath and incubated with either buffer alone (Ctrl), Aniso (200 μM) for 1 h, or NiPp (500 μM) for 30 min followed by Aniso (200 μM) for 1 h. […] Proteins were extracted […] immunoblotted to examine p38MAPK phosphorylation. Quantification of relative phosphorylation to total p38MAPK level is shown. n=10, *p<0.05 in one-way ANOVA with Tukey post-test. NiPp restores endothelial dysfunction and reduced p38 MAPK phosphorylation induced by anisomycin in RA.
# RA rings were suspended in a muscle bath and incubated with either buffer alone (Ctrl), Aniso (200 μM) for 1 h, or NiPp (500 μM) for 30 min followed by Aniso (200 μM) for 1 h. […] The force generated was determined and was adjusted to the weight and length of the tissue. Representative tracings from 1 out of 6 different rats are shown. […] Proteins were extracted and phosphorylation of p38 MAPK was determined by Western blot analysis. […] Data are expressed as mean±SD. […]
# This produced the maximal force tension relationship as previously described. […] Contractile responses were defined by stress, calculated using force generated by tissues as follows: stress (×10^5 N/m^2)=force (g)×0.0987/area, where area=wet weight (mg)/at maximal length (mm)]/1.055.
# Relaxation was calculated as percent change in stress compared to the maximal PE-induced contraction (set as 100%). […]
# p38 MAPK phosphorylation = p38 MAPK phosphorylation (Western blot) in anisomycin-treated rat aorta; format: cell-based; conditions: anisomycin 200 μM, 1 h
# Procedure: as §1
# RA rings were suspended in a muscle bath and incubated with either buffer alone (Ctrl), Aniso (200 μM) for 1 h, or NiPp (500 μM) for 30 min followed by Aniso (200 μM) for 1 h. […] The force generated was determined and was adjusted to the weight and length of the tissue. […] Proteins were extracted and phosphorylation of p38 MAPK was determined by Western blot analysis. […] Data are expressed as mean±SD.
# p38 MAPK activation with Anisomycin. […] After treatments, endothelial-dependent relaxation was determined or tissues were snap-frozen for Western blot analysis.
# Western blot Analysis. […] The protein-antibody complexes were visualized and quantified using the Odyssey Infrared Imaging System. Phosphorylation was calculated as a ratio of the phosphorylated protein to total protein and was then normalized to the untreated tissues (Ctrl) with the control value set as 1.0.
smiles,measurement,setting,value
"COc1ccc(C[C@H]2NC[C@H](O)[C@H]2OC(C)=O)cc1 [Anisomycin, anisomycin, reference compound]",effect of anisomycin alone on endothelial dependent relaxation,rat aorta,impaired
same,effect of anisomycin alone on phosphorylation of p38 MAPK,p38 MAPK phosphorylation,increases
